Assay results taken from patent US20050245399A1, “Pyrazole derivatives as herbicidal compositions containing them” (ISHIHARA SANGYO KAISHA, LTD., priority 2004, published 2005).

Assays:
Assay type in all cases: in vivo
[1] = tested on: barnyardgrass (Echinochloa crus-galli L.): ECHCG; assay: Test Example 1 pre-emergence herbicidal activity, ECHCG; details: visually observed 20th to 23rd day after application
Excerpt: (§1) Upland field soil was put into a 1/170,000 ha pot, and seeds of various plants {1. barnyardgrass (Echinochloa crus-galli L.): ECHCG, 2. crabgrass (Digitaria sanguinalis L.): DIGSA, 3. green foxtail (Setaria viridis L.): SETVI, 4. redroot pigweed (Amaranthus retroflexus L.): AMARE, 5. prickly sida (Sida spinosa L.): SEDSP, 6. velvetleaf (Abutilon theophrasti): ABUTH, 7. common cocklebur (Xanthium strumarium L.): XANST, 8. rice (Oryza sativa L.): ORYSA, 9. wheat (Triticum aestivum L.): TRZAX, 10. corn (Zea mays L.): ZEAMX, 11. soybean (Glycine max Merr.): GLXMA} were sown. Then, one day after the sowing, a wettable powder or emulsifiable concentrate having the compound of the present invention formulated in accordance with a usual formulation method, was weighed so that the active ingredient would be a predetermined amount and diluted with water in an amount of 500 L/ha. The herbicide adjusted was applied by a small size sprayer for preemergence treatment. On the 20th to 23rd day after the application of the herbicide, the growth of the respective plants was visually observed, and the herbicidal effects were evaluated by growth controlling degrees (%) ranging from 0 (equivalent to the untreated control) to 100 (complete kill), whereby the results shown in Table 4, were obtained. Compound Nos. in Table 4 correspond to Compound Nos. in Table 1 and 2 given hereinbefore.

[2] = tested on: crabgrass (Digitaria sanguinalis L.): DIGSA; assay: Test Example 1 pre-emergence herbicidal activity, DIGSA; details: visually observed 20th to 23rd day after application
Excerpt: as §1

[3] = tested on: green foxtail (Setaria viridis L.): SETVI; assay: Test Example 1 pre-emergence herbicidal activity, SETVI; details: visually observed 20th to 23rd day after application
Excerpt: as §1

[4] = tested on: redroot pigweed (Amaranthus retroflexus L.): AMARE; assay: Test Example 1 pre-emergence herbicidal activity, AMARE; details: visually observed 20th to 23rd day after application
Excerpt: as §1

[5] = tested on: prickly sida (Sida spinosa L.): SEDSP; assay: Test Example 1 pre-emergence herbicidal activity, SIDSP; details: visually observed 20th to 23rd day after application
Excerpt: as §1

[6] = tested on: velvetleaf (Abutilon theophrasti): ABUTH; assay: Test Example 1 pre-emergence herbicidal activity, ABUTH; details: visually observed 20th to 23rd day after application
Excerpt: as §1

[7] = tested on: rice (Oryza sativa L.): ORYSA; assay: Test Example 1 pre-emergence herbicidal activity, ORYSA; details: visually observed 20th to 23rd day after application
Excerpt: as §1

[8] = tested on: wheat (Triticum aestivum L.): TRZAX; assay: Test Example 1 pre-emergence herbicidal activity, TRZAX; details: visually observed 20th to 23rd day after application
Excerpt: as §1

[9] = tested on: corn (Zea mays L.): ZEAMX; assay: Test Example 1 pre-emergence herbicidal activity, ZEAMX; details: visually observed 20th to 23rd day after application
Excerpt: as §1

[10] = tested on: soybean (Glycine max Merr.): GLXMA; assay: Test Example 1 pre-emergence herbicidal activity, GLXMA; details: visually observed 20th to 23rd day after application
Excerpt: as §1

[11] = tested on: barnyardgrass (Echinochloa crus-galli L.), ECHCG; assay: Test Example 2 post-emergence (foliage treatment) herbicidal activity, ECHCG; details: 63 g a.i./ha
Excerpt: (§2) Upland field soil was put into a 1/170,000 ha pot, and seeds of various plants were sown. Then, when the plants reached predetermined leaf stages {1. barnyardgrass (Echinochloa crus-galli L.), ECHCG: 1.1-2.1 leaf stage, 2. crabgrass (Digitaria sanguinalis L.), DIGSA: 1.0-2.0 leaf stage, 3. green foxtail (Setaria viridis L.), SETVI: 1.0-2.2 leaf stage, 4. redroot pigweed (Amaranthus retroflexus L.), AMARE: 0.1-1.5 leaf stage, 5. prickly sida (Sida spinosa L.), SIDSP: 0.1-0.6 leaf stage, 6. velvetleaf (Abutilon theophrasti), ABUTH: 0.1-0.6 leaf stage, 7. common cocklebur (Xanthium strumarium L.), XANST: 0.1 leaf stage, 8. rice (Oryza sativa L.), ORYSA; 1.0-2 leaf stage, 9. wheat (Triticum aestivum L.), TRZAX: 2.3-3.5 leaf stage, 10. corn (Zea mays L.), ZEAMXN 2.1-2.6 leaf stage, 11. soybean (Glycine max Merr.), GLXMA: primary leaf stage}, a wettable powder or emulsifiable concentrate having the compound of the present invention formulated in accordance with a usual formulation method, was weighed so that the active ingredient would be a predetermined amount, and diluted with water in an amount of 500 L/ha. To the diluted solution, 0.1% (v/v) of an agricultural spreader was added. The herbicide adjusted was applied by a small size sprayer for foliage treatment. On the 20th to 23rd day after the application of the herbicide, the growth of the respective plants was visually observed, and the herbicidal effects were evaluated by growth controlling degrees (%) ranging from 0 (equivalent to the untreated control) to 100 (complete kill), whereby the results shown in Table 5, were obtained. Compound Nos. in Table 5 correspond to Compound Nos. in Table 1 and 2 given hereinbefore.

[12] = tested on: crabgrass (Digitaria sanguinalis L.), DIGSA; assay: Test Example 2 post-emergence (foliage treatment) herbicidal activity, DIGSA; details: 63 g a.i./ha
Excerpt: as §2

[13] = tested on: green foxtail (Setaria viridis L.), SETVI; assay: Test Example 2 post-emergence (foliage treatment) herbicidal activity, SETVI; details: 63 g a.i./ha
Excerpt: as §2

[14] = tested on: prickly sida (Sida spinosa L.), SIDSP; assay: Test Example 2 post-emergence (foliage treatment) herbicidal activity, SIDSP; details: 63 g a.i./ha
Excerpt: as §2

[15] = tested on: velvetleaf (Abutilon theophrasti), ABUTH; assay: Test Example 2 post-emergence (foliage treatment) herbicidal activity, ABUTH; details: 63 g a.i./ha
Excerpt: as §2

[16] = tested on: rice (Oryza sativa L.), ORYSA; assay: Test Example 2 post-emergence (foliage treatment) herbicidal activity, ORYSA; details: 63 g a.i./ha
Excerpt: as §2

[17] = tested on: wheat (Triticum aestivum L.), TRZAX; assay: Test Example 2 post-emergence (foliage treatment) herbicidal activity, TRZAX; details: 63 g a.i./ha
Excerpt: as §2

[18] = tested on: corn (Zea mays L.), ZEAMX; assay: Test Example 2 post-emergence (foliage treatment) herbicidal activity, ZEAMX; details: 63 g a.i./ha
Excerpt: as §2

[19] = tested on: soybean (Glycine max Merr.), GLXMA; assay: Test Example 2 post-emergence (foliage treatment) herbicidal activity, GLXMA; details: 63 g a.i./ha
Excerpt: as §2

Structure (SMILES) | Pre-emergence Herbicidal Activity ECHCG (growth controlling degree) ([1]; Rate 63 g a.i./ha) | Pre-emergence Herbicidal Activity DIGSP (growth controlling degree) ([2]; Rate 63 g a.i./ha) | Pre-emergence Herbicidal Activity SETVI (growth controlling degree) ([3]; Rate 63 g a.i./ha) | Pre-emergence Herbicidal Activity AMARE (growth controlling degree) ([4]; Rate 63 g a.i./ha) | Pre-emergence Herbicidal Activity SIDSP (growth controlling degree) ([5]; Rate 63 g a.i./ha) | Pre-emergence Herbicidal Activity ABUTH (growth controlling degree) ([6]; Rate 63 g a.i./ha) | Pre-emergence Herbicidal Activity ORYSA (growth controlling degree) ([7]; Rate 63 g a.i./ha) | Pre-emergence Herbicidal Activity TRZAX (growth controlling degree) ([8]; Rate 63 g a.i./ha) | Pre-emergence Herbicidal Activity ZEAMX (growth controlling degree) ([9]; Rate 63 g a.i./ha) | Pre-emergence Herbicidal Activity GLXMA (growth controlling degree) ([10]; Rate 63 g a.i./ha) | growth controlling degree, ECHCO [11] | growth controlling degree, DIGSP [12] | growth controlling degree, SETVI [13] | growth controlling degree, SIDSP [14] | growth controlling degree, ABUTH [15] | growth controlling degree, ORYSA [16] | growth controlling degree, TRZAX [17] | growth controlling degree, ZEAMX [18] | growth controlling degree, GLXMA [19] | other results
COc1c(Cl)cc(F)c(-c2nn(C)c(OC(F)F)c2Cl)c1NC(=O)CC(C)(C)C [Compound 1-265] | 20% | 100% | 70% | 100% | 100% | 100% | 10% | 20% | 0% | 0% | 60% | 60% | 80% | 100% | 95% | 40% | 30% | 30% | 50% | –
COc1c(Cl)cc(F)c(-c2nn(C)c(OC(F)F)c2Cl)c1NC(=O)C(C)c1ccccc1 (stereo not drawn) [Compound 1-41] | – | – | – | – | – | – | – | – | – | – | 20% | 30% | 40% | 100% | 100% | 30% | 30% | 0% | 40% | Pre-emergence Herbicidal Activity ECHCG (growth controlling degree) ([1]; Rate 10 g a.i./ha): 30%; Pre-emergence Herbicidal Activity DIGSP (growth controlling degree) ([2]; Rate 10 g a.i./ha): 50%; Pre-emergence Herbicidal Activity SETVI (growth controlling degree) ([3]; Rate 10 g a.i./ha): 100%; Pre-emergence Herbicidal Activity AMARE (growth controlling degree) ([4]; Rate 10 g a.i./ha): 50%; Pre-emergence Herbicidal Activity SIDSP (growth controlling degree) ([5]; Rate 10 g a.i./ha): 40%; Pre-emergence Herbicidal Activity ABUTH (growth controlling degree) ([6]; Rate 10 g a.i./ha): 0%; Pre-emergence Herbicidal Activity ORYSA (growth controlling degree) ([7]; Rate 10 g a.i./ha): 0%; Pre-emergence Herbicidal Activity TRZAX (growth controlling degree) ([8]; Rate 10 g a.i./ha): 0%; Pre-emergence Herbicidal Activity ZEAMX (growth controlling degree) ([9]; Rate 10 g a.i./ha): 0%; Pre-emergence Herbicidal Activity GLXMA (growth controlling degree) ([10]; Rate 10 g a.i./ha): 0%
COc1c(Cl)cc(F)c(-c2nn(C)c(OC(F)F)c2Cl)c1NC(=O)c1ccc(C)cc1 [Compound 1-261] | 80% | 100% | 98% | 100% | 100% | 80% | 40% | 10% | 0% | 0% | 100% | 95% | 100% | 100% | 100% | 70% | 30% | 40% | 70% | –
